# Measured values: patent publication US8952048B2, “Treatment of immune disorders using kainate receptor antagonists” (Virginia Commonwealth University, priority 2010, dated 2015)
# Entries after “also recorded” stand apart in the source; their conditions may differ.
# How the values were obtained:
# primary human B cells [1] = experiment: Immunoglobulin production by primary human B cells (ELISA, 14 days); assay type: cell-based; conditions: for amount of IgE produced / effect on glutamate enhancement of IgG production: 14 days; for effect on glutamate enhancement of IgG production / effect on glutamate mediated increase in IgE production: 10 μM antagonist before culture; for effect on glutamate enhancement of IgG production: 5 mM glutamate
# Description: (§1) Primary B cells or PBMC were cultured in the presence of 10 ng/mL IL-4 and 1 μg/mL anti-CD40 in complete culture media in the presence or absence of 5 mM KA or 5 mM Glu. When indicated, 200 ng/mL IL-21 was also added. For antagonism studies, prior to culture primary cells were treated with 10 μM vehicle (DMSO), NBQX, NS102, or TPM. After 14 days of culture, cell free supernatants were analyzed via ELISA for Ig levels. As cells are grown at various densities, line graphs represent Ig production as compared to cell density.
# (§2) To determine the effect of ADAM10 inhibition on Ig production, purified human B cells were cultured with 10 ng/mL IL-4, 1 μg/mL anti-CD40, and 200 ng/mL IL-21 in complete culture media in the presence of DMSO as vehicle control or 10 μM ADAM10 specific inhibitor. Five days later, cell free supernatants were harvested for soluble CD23 release and fourteen days later, cell free supernatants were analyzed for Ig production. ELISAs. Human sCD23 ELISA was measured using a standard sandwich ELISA approach, using a mouse anti-CD23 (Clone BU38) coating antibody and sheep anti-CD23 (both from The Binding Site Birmingham, UK). Detection is performed with a goat anti-sheep IgG tagged with HRP (Southern Biotech Birmingham, Ala.). Determination of human IgE levels utilized a monoclonal mouse anti-human IgE antibody (clone 4.15) as a capture. Samples and standards were detected using a rabbit anti-human IgE-HRP (Southern Biotech) diluted in PBS/10% FBS. Human IgG or IgM were detected using a goat anti-human IgG or IgM followed by detection with a goat anti-human IgG or IgM tagged with HRP (All from Southern Biotech). Standards for the IgG and IgM ELISAs were purchased from Sigma. IgE standards were purified from JW8 hybridoma cells as previously described (Caven et al., 2005a). All assays utilized TMB substrate (BD Pharmingen San Diego, Calif.) and the reactions were stopped with 0.18M H2SO4. Plates are read at a wavelength of 450 nm on a SpectraMax 250 and data analyzed using SOFTmax PRO 3.1.2 software (Molecular Devices, Los Angeles, Calif.).
# primary B cells = experiment: ADAM10 mRNA by qPCR in primary B cells; assay type: cell-based, human; conditions: 5 mM KA or glutamate, 30 minutes; normalized to beta-actin
# Description: Alternatively when whole PBMC was used, buffy coats were obtained from the Virginia Blood Service Center (Richmond, Va.). PBMC were isolated by Ficoll gradient density centrifugation. All human studies research was performed in accordance to the Virginia Commonwealth University Institution Review Board per approved protocols. RT-PCR and qPCR. RNA was isolated via standard Trizol (Invitrogen) purification protocol and the Access Quick RT-PCR kit (Promega, Madison Wis.) was used with gene specific primers to examine for the presence of kainate receptor subunits and their transcript variants. Primers were designed using VectorNTI software (Invitrogen). Ready-made Primers® for G3PDH and all custom made primers for all sequences were synthesized by Integrated DNA Technologies (Coralville, Iowa). qPCR experiments were performed by the nucleic acid core in the ABI Prism® 7900 Sequence Detection System (Applied Biosystems, Foster City, Calif.) using the TaqMan® One Step PCR Master Mix Reagents Kit. All the samples were tested in triplicate using the following conditions: 48° C./30 min; 95° C./10 min; and 40 cycles of 95° C./15 sec and 60° C./1 min. The cycle threshold was determined to provide the optimal standard curve values (0.98 to 1.0). The probes and primers for ADAM10 (#Hs00153853_ml) were purchased from ABI. […] Relative ADAM10 mRNA is determined as a relative ratio based upon beta-actin.
# RPMI8866 cells = experiment: Soluble CD23 release assay in RPMI8866 cells; assay type: cell-based, human; conditions: for effect on increase in sCD23 release caused by KAR stimulation: 50 μM antagonist 1 hr prior to 5 mM KA or Glu; for effect on baseline sCD23 release: 50 μM antagonist, no KA or Glu
# Description: For these studies, the CD23+ human B cell line RPMI8866 was grown in the presence or absence of 5 mM KA or Glu for 24 hours in CDMEM10 at a concentration of 1×10^6 cells/mL. For antagonist studies, prior to the addition of KA or Glu cells were pre-treated with 50 μM vehicle (DMSO), NBQX, NS 102, or TPM for one hour. After incubation, cell free supernatants were harvested and sCD23 levels determined by ELISA. […] Forty-eight hours later cell free supernatants were harvested for ELISA.
# as §2
# primary human B cells [2] = experiment: [3H]-thymidine proliferation assay, primary B cells; assay type: cell-based
# Description: (§3) When PBMC is used the cell concentration is 100,000 cells/well. […] After 96 hours of growth, a 24 hr pulse [H^3]-thymidine (Perkin Elmer) was used. Plates were then harvested using a Filtermate cell harvester onto GFC plates. Assays were read using a Topcount Plate Counter (Perkin Elmer, Waltham, Mass.).
# GluK2 containing KARs = conditions: Verdoorn et al., 1994; cited from earlier work
# [3] = system: B cells from SLE patients; experiment: SLE vs. normal donor B cell activity in the presence of antagonist; assay type: cell-based, human; conditions: Example 3, written in present tense
# Source text: Peripheral blood from both SLE patients and normal donors is obtained. Presence of KARS: Specific KAR primers and Western protocols are used to analyze mRNA and protein expression, respectively, in cultured B cells from SLE patients. Flow cytometry is used to confirm cell surface expression. Comparison of the expression of KARs on B cells from normal vs. SLE patients, the presence of KARs on SLE patient B cells is confirmed.
# B cells isolated from both donor populations are stimulated with anti-CD40 in the presence or absence of KAR activation to induce cellular proliferation. Differences among both groups both with and without KAR stimulation are determined. Proliferation is measured via H^3 thymidine incorporation as well as cell cycle divisions via CFSE dilution analysis.
# B cells isolated from both populations are put in culture in the presence of IL-4 and anti-CD40, the two signals required for Ig production, in the presence or absence of KAR activation. After 14 days of culture, cell free supernatants are analyzed for total IgM, IgG, and IgE via ELISA. Furthermore, specificity of human antibodies is determined by employing commercially available human anti-nuclear antibody (ANA), anti-snRNP/Smith, and anti-dsDNA ELISA kits.
# SLE vs. normal donor B cell activity is compared in the presence of at least one antagonist such as NS 102.
# Human PBMC [4] = experiment: Immunoglobulin production in PBMC cultures (ELISA, 14 days); assay type: cell-based
# Description: as §1, §2
# Human PBMC [5] = experiment: Proliferation assay, PBMC; assay type: cell-based; conditions: addition of glutamate
# Description: as §3
# B cells from KAR KO mice = experiment: In vitro culture of B cells from KAR KO mice with glutamate; assay type: cell-based, mouse; conditions: in the presence of glutamate; data not shown
# [6] = IL-4, anti-CD40, IL-21, 5 mM glutamate, CDMEM-10, 14 days
# [7] = 10 μM pretreatment 1 hour before glutamate
# [8] = anti-CD40, IL-4, IL-21, glutamate
structure (smiles),measurement,setting,value
"C=C(C)[C@H]1CN[C@H](C(=O)O)[C@H]1CC(=O)O [KA, kainic acid]",amount of IgE produced,"primary human B cells [1]; IL-4 and anti-CD40, CRPMI-10, 5 mM KA or Glu",strong and statistically significant increase
same,ADAM10 mRNA levels,primary B cells,significant increase
same,amount of sCD23 released following KAR activation,"RPMI8866 cells; 5 mM KA or Glu, 24 hours, CDMEM10",significant elevation
NS(=O)(=O)c1cccc2c1c([N+](=O)[O-])cc1nc(O)c(O)nc12 [NBQX],effect on glutamate enhancement of IgG production,primary human B cells [1],unaffected
same,effect on glutamate mediated increase in IgE production,primary human B cells [1]; [6],no effect
same,effect on increase in sCD23 release caused by KAR stimulation,RPMI8866 cells; 24 hours,no change is observed
same,effect on baseline sCD23 release,RPMI8866 cells,none of the antagonists have any effect
"O=C1Nc2c(cc([N+](=O)[O-])c3c2CCCC3)C1=NO [NS102, 5-Nitro-6,7,8,9-tetrahydro-1H-benzo[g]indole-2,3-dione 3-oxime]",effect on glutamate enhancement of IgG production,primary human B cells [1],blocked
same,effect on glutamate mediated increase in IgE production,primary human B cells [1]; [6],almost completely blocks
same,effect on glutamate mediated increase in IgE production,"primary human B cells [1]; IL-4, anti-CD40, IL-21, 5 mM glutamate, CDMEM-10, 14 days, listed as NS-102",dramatically reduced
same,effect on glutamate-induced increase in proliferation,primary human B cells [2]; 10 μM pretreatment 1 hour before 5 mM glutamate,prevented
same,selectivity of KAR antagonism,GluK2 containing KARs,selectively antagonizes
same,B cell hyperactivity in SLE patients,[3],overcomes the B cell hyperactivity
same,effect on glutamate increase in IgE production,Human PBMC [4]; [7],strongly blocked
same,effect on glutamate increase in IgG production,Human PBMC [4]; [7],strongly blocked
same,effect on increase in sCD23 release caused by KAR stimulation,RPMI8866 cells; 24 hours,could prevent the significant increase
same,effect on baseline sCD23 release,RPMI8866 cells,none of the antagonists have any effect
"CC1(C)O[C@@H]2[C@@H](CO[C@@]3(COS(N)(=O)=O)OC(C)(C)O[C@@H]23)O1 [TPM, topiramate]",effect on glutamate mediated increase in IgE production,primary human B cells [1]; [6],did not influence IgE production
same,effect on increase in sCD23 release caused by KAR stimulation,RPMI8866 cells; 24 hours,no change is observed
same,effect on baseline sCD23 release,RPMI8866 cells,none of the antagonists have any effect
"N[C@@H](CCC(=O)O)C(=O)O [glutamate, L-glutamic acid]",total IgG production,primary human B cells [1]; [6],Enhancement in IgG production was seen in all but the highest density cultures
same,total IgM levels,primary human B cells [1]; [6],not influenced
same,amount of IgE produced,"primary human B cells [1]; IL-4, anti-CD40 plus IL-21, 5 mM glutamate",much more IgE; also recorded: pronounced increase
same,proliferation,Human PBMC [5],also affected
same,cell proliferation,"primary human B cells [2]; 5 mM glutamate, IL-4, anti-CD40, IL-21, 96 hours plus 24 hr pulse",significant increase in proliferation
same,ADAM10 mRNA levels,primary B cells,significant increase
same,Ig synthesis,B cells from KAR KO mice,did not show any enhanced
same,proliferation,B cells from KAR KO mice,did not show any enhanced
same,sCD23 release,B cells from KAR KO mice,did not show any enhanced
same,IgE synthesis,Human PBMC [4]; [8],very strong enhancement
same,IgM production,Human PBMC [4]; [8],not significantly influenced
same,total IgG production,Human PBMC [4]; [8],IgG enhancement was seen
